Test results reported in the supplement of paper PMC10307832.

Key:
Experiment in all cases: relative viability (nuclei count vs DMSO), 5 days (fraction); higher = more cells survive
[1] = compound: O=C(O)c1ccc2c(c1)nc(Nc1cccc(Cl)c1)c1ccncc12 [Silmitasertib]
Summary of the method: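 MetaXpress counted nuclei in 4× images of lung cancer cell lines that had been fixed, permeabilised and Hoechst-stained in one step. Before that, cells in 1536-well plates were kept overnight at 37 °C, pinned with five √10-spaced library-drug doses on vehicle-anchored plates, and cultured 5 days without medium change. Viability takes treated-well nuclei over vehicle-well nuclei and uses the median across plates. Plates were accepted only at control CV below 25% and at least one doubling.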

[2] = compound: O=C(O)c1ccc2c(c1)nc(Nc1cccc(Cl)c1)c1ccncc12 [Silmitasertib] + CC1(C)CCC(c2ccc(Cl)cc2)=C(CN2CCN(c3ccc(C(=O)NS(=O)(=O)c4ccc(N[C@H](CCN5CCOCC5)CSc5ccccc5)c(S(=O)(=O)C(F)(F)F)c4)cc3)CC2)C1 [Navitoclax] (partner 0.5 µM)
Summary of the method: (§1)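 For relative viability, nuclei counts in treated wells were divided by those in vehicle wells. Lung cancer cell lines had been pin-tool dosed in 1536-well plates the day after seeding and cultured for 5 days, then fixed and stained in one step (final 0.05% Triton X-100, 1% formaldehyde, 1 ug/ml Hoechst) and imaged at 4×. Doses were one drug alone or a fixed anchor-drug dose plus five library-drug doses (not always all listed) in √10 steps, and values are duplicate-plate medians.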

[3] = compound: O=C(O)c1ccc2c(c1)nc(Nc1cccc(Cl)c1)c1ccncc12 [Silmitasertib] + CS(=O)(=O)CCNCc1ccc(-c2ccc3ncnc(Nc4ccc(OCc5cccc(F)c5)c(Cl)c4)c3c2)o1 [Lapatinib] (partner 2 µM)
Summary of the method: as §1

[4] = compound: O=C(O)c1ccc2c(c1)nc(Nc1cccc(Cl)c1)c1ccncc12 [Silmitasertib] + Cc1nc(Nc2ncc(C(=O)Nc3c(C)cccc3Cl)s2)cc(N2CCN(CCO)CC2)n1 [Dasatinib] (partner 0.075 µM)
Summary of the method: as §1

[5] = compound: O=C(O)c1ccc2c(c1)nc(Nc1cccc(Cl)c1)c1ccncc12 [Silmitasertib] + O=C(CCCCCCC(=O)Nc1ccccc1)NO [Vorinostat] (partner 1 µM)
Summary of the method: as §1

Cell Line | relative viability ([1]; 0.04 µM) | relative viability ([1]; 0.4 µM) | relative viability ([1]; 1.265 µM) | relative viability ([1]; 4 µM) | relative viability ([2]; first compound 0.04 µM) | relative viability ([2]; first compound 0.4 µM) | relative viability ([2]; first compound 1.265 µM) | relative viability ([2]; first compound 4 µM) | relative viability ([3]; first compound 0.04 µM) | relative viability ([3]; first compound 0.4 µM) | relative viability ([3]; first compound 1.265 µM) | relative viability ([3]; first compound 4 µM) | relative viability ([4]; first compound 0.04 µM) | relative viability ([4]; first compound 0.4 µM) | relative viability ([4]; first compound 1.265 µM) | relative viability ([4]; first compound 4 µM) | relative viability ([5]; first compound 0.04 µM) | relative viability ([5]; first compound 0.4 µM) | relative viability ([5]; first compound 1.265 µM) | relative viability ([5]; first compound 4 µM)
NCI-H1395 | 1.07 | 0.772 | 0.913 | 0.555 | 1.2 | 0.816 | 1.1 | 0.947 | 1.29 | 0.672 | 0.919 | 0.68 | 0.471 | 0.387 | 0.431 | 0.414 | 0.93 | 0.616 | 0.662 | 0.538
NCI-H2087 | 1.04 | 0.596 | 0.875 | 0.466 | 1.11 | 0.855 | 0.689 | 0.319 | 0.924 | 0.753 | 0.727 | 0.377 | 0.828 |  | 0.695 | 0.308 | 0.669 | 0.506 | 0.672 | 0.589
NCI-H838 | 1.03 | 0.747 | 0.925 | 0.678 | 1.36 |  | 1.29 | 0.929 | 1.28 |  | 0.753 | 0.465 | 0.323 | 0.325 | 0.372 | 0.254 | 0.787 | 0.837 | 0.807 | 0.848
NCI-H1793 | 1.09 | 0.654 | 0.771 | 0.529 | 0.46 | 0.315 | 0.395 | 0.311 | 0.979 | 0.728 | 0.437 | 0.488 | 0.382 | 0.324 | 0.357 | 0.393 | 0.989 | 0.619 | 0.718 | 0.213
LC-2-ad | 1.13 | 0.828 | 0.976 | 0.523 | 0.462 | 0.383 | 0.392 | 0.261 | 1.06 | 0.855 | 0.951 | 0.233 | 0.915 | 0.482 | 0.384 | 0.276 | 0.712 | 0.573 | 0.753 | 0.3
HCC-78 | 1.05 | 0.697 | 0.654 | 0.764 | 0.892 | 0.672 | 0.757 | 0.65 | 1.15 | 0.511 | 0.187 | 0.322 | 0.51 | 0.286 | 0.309 | 0.323 | 0.459 | 0.421 | 0.402 | 0.437
LOU-NH91 | 1.12 | 0.917 | 0.806 | 0.582 | 0.852 | 0.596 | 0.549 | 0.464 | 0.747 | 0.649 | 0.548 | 0.516 | 0.585 | 0.475 | 0.46 | 0.383 | 1.06 | 0.874 | 0.784 | 0.514
NCI-H1734 | 1.07 | 0.816 | 0.975 | 0.691 | 0.884 |  | 0.781 | 0.737 | 1.14 |  | 0.948 | 0.785 | 0.498 | 0.422 | 0.471 | 0.487 | 0.849 | 0.705 | 0.874 | 0.582
NCI-H520 | 1.11 | 0.835 | 0.887 | 0.802 | 1.11 | 0.917 | 1.04 | 0.863 | 0.93 | 0.902 | 0.773 | 0.438 | 0.274 | 0.215 | 0.196 | 0.193 | 0.773 | 0.907 | 0.912 | 0.802
UMC-11 | 1.11 | 0.916 | 0.985 | 0.684 | 0.337 | 0.278 | 0.207 | 0.162 | 1.14 | 0.949 | 0.965 | 0.359 | 0.508 | 0.477 | 0.491 | 0.331 | 0.388 | 0.522 | 0.439 | 0.333
NCI-H596 | 0.958 | 0.792 | 0.947 | 0.658 | 1.09 | 0.882 | 0.902 | 0.787 | 1.06 | 1.04 | 0.833 | 0.977 | 0.617 | 0.563 | 0.463 | 0.497 | 0.768 | 0.616 | 0.611 | 0.375
NCI-H1755 | 1.03 | 0.953 | 1.05 | 1.16 | 1.04 | 0.942 | 0.991 | 0.959 | 1.03 | 0.979 | 1.07 | 1.16 | 0.382 | 0.419 | 0.408 | 0.363 | 0.756 | 0.633 | 0.526 | 0.72
SK-LU-1 | 1.13 | 0.703 | 0.802 | 0.457 | 0.984 | 0.532 | 0.671 | 0.217 | 0.995 | 0.649 | 0.369 | 0.388 | 0.203 | 0.164 | 0.172 | 0.175 | 0.851 | 0.673 | 0.587 | 0.35
NCI-H647 | 0.968 | 0.758 | 0.723 | 0.498 | 1.05 | 0.826 | 0.85 | 0.57 | 1.37 | 0.801 | 0.716 | 0.328 | 0.185 | 0.266 | 0.171 | 0.0776 | 0.868 | 0.666 | 0.672 | 0.704
SW 1573 | 1.19 | 0.955 | 0.876 | 0.779 | 1.07 | 1.02 | 0.824 | 0.815 | 1.1 | 1.07 | 1.11 | 0.67 | 0.624 | 0.516 | 0.576 | 0.451 | 1.17 | 0.661 | 0.908 | 0.577
HCC-15 | 1.11 | 0.769 | 0.825 | 0.377 | 0.745 | 0.556 | 0.548 | 0.438 | 0.91 | 0.52 | 0.676 | 0.321 | 0.669 | 0.53 | 0.396 | 0.32 | 1.02 | 0.699 | 0.579 | 0.671
